Data as given in patent US9695103B2 (priority 2014, dated 2017).
Values joined by “and” are separate entries in the source; they are usually repeats but may differ in a detail not shown here. Equal entries are not always repeated.

What was measured:
daphnias = test: Biocidal activity against crustaceans (daphnias), FR. 1.39.2007,03223 procedure; settings: test time 96 h; for Number of survived daphnias (the average over parallel set of samples), Test sample: control sample 10
fungal spores = test: Fungicidal activity according to GOST 30028.4-2006, resistance of treated materials to fungal spores; format: cell-based; settings: additive content 5 % wt.
[1] = test system: E. coli No. 906, S. aureus No. 1257, clinical strain P. aeruginosa; test: Bactericidal activity, summary statement over investigated strains; format: cell-based; settings: concentration of 2.0%, time of exposure from 30 min
E. coli No. 906 = test: Bactericidal activity: exposure of bacterial culture in salt solution, neutralization, inoculation on solid nutrient medium; format: cell-based; parameters: key: NG - no growth; CG - confluent growth
[2] = test system: clinical strain P. aeruginosa; test: as above; format: cell-based; parameters: key: NG - no growth; CG - confluent growth
S. aureus No. 1257 = test: as above; format: cell-based; parameters: key: NG - no growth; CG - confluent growth
[3] = 0.00001 % wt. in aqueous medium
[4] = Paper impregnated with latex SKS 65 GP

C=CC(=O)[O-].O=C([O-])c1ccccc1.[Cu+2] [Copper acrylate-benzoate, reference compound]
Daphnia death rate in test sample, % of control sample (daphnias; [3]): 0 % of control sample | Number of survived daphnias (the average over parallel set of samples), Test sample (daphnias; [3]): 10 | Daphnia death rate in test sample, % of control sample (daphnias; 0.0001 % wt. in aqueous medium): 0 % of control sample | Number of survived daphnias (the average over parallel set of samples), Test sample (daphnias; 0.0001 % wt. in aqueous medium): 10 | Daphnia death rate in test sample, % of control sample (daphnias; 0.001 % wt. in aqueous medium): 0 % of control sample | Number of survived daphnias (the average over parallel set of samples), Test sample (daphnias; 0.001 % wt. in aqueous medium): 10 | Daphnia death rate in test sample, % of control sample (daphnias; 0.01 % wt. in aqueous medium): 0 % of control sample | Number of survived daphnias (the average over parallel set of samples), Test sample (daphnias; 0.01 % wt. in aqueous medium): 10 | Daphnia death rate in test sample, % of control sample (daphnias; 0.1 % wt. in aqueous medium): 10 % of control sample | Number of survived daphnias (the average over parallel set of samples), Test sample (daphnias; 0.1 % wt. in aqueous medium): 9 | Daphnia death rate in test sample, % of control sample (daphnias; 1 % wt. in aqueous medium): 20 % of control sample | Number of survived daphnias (the average over parallel set of samples), Test sample (daphnias; 1 % wt. in aqueous medium): 8

C=CC(=O)[O][Cu][O]C(=O)C(O)C(O)C(=O)O (centres unmarked) [Copper acrylate-tartrate]
Tolerance time (fungal spores; [4]): 16 days | Tolerance time (fungal spores; Polyvinyl chloride emulsion): 17 days | bactericidal effect against investigated strains [1]: stable bactericidal effect | Bactericidal activity, growth of E. coli 906 (E. coli No. 906; 1.5 % wt., exposure 60 min): NG | Bactericidal activity, growth of E. coli 906 (E. coli No. 906; 2.0 % wt., exposure 5 min): NG | Bactericidal activity, growth of E. coli 906 (E. coli No. 906; 2.0 % wt., exposure 15 min): NG | Bactericidal activity, growth of E. coli 906 (E. coli No. 906; 2.0 % wt., exposure 30 min): NG | Bactericidal activity, growth of E. coli 906 (E. coli No. 906; 2.0 % wt., exposure 60 min): NG | Bactericidal activity, growth of E. coli 906 (E. coli No. 906; 3.0 % wt., exposure 5 min): NG | Bactericidal activity, growth of E. coli 906 (E. coli No. 906; 3.0 % wt., exposure 15 min): NG | Bactericidal activity, growth of E. coli 906 (E. coli No. 906; 3.0 % wt., exposure 30 min): NG | Bactericidal activity, growth of P. aeruginosa ([2]; 1.5 % wt., exposure 30 min): CG | Bactericidal activity, growth of P. aeruginosa ([2]; 1.5 % wt., exposure 60 min): CG | Bactericidal activity, growth of P. aeruginosa ([2]; 2.0 % wt., exposure 5 min): CG | Bactericidal activity, growth of P. aeruginosa ([2]; 2.0 % wt., exposure 15 min): >300 CFU | Bactericidal activity, growth of P. aeruginosa ([2]; 2.0 % wt., exposure 60 min): NG | Bactericidal activity, growth of P. aeruginosa ([2]; 3.0 % wt., exposure 5 min): NG | Bactericidal activity, growth of P. aeruginosa ([2]; 3.0 % wt., exposure 15 min): NG | Bactericidal activity, growth of P. aeruginosa ([2]; 3.0 % wt., exposure 30 min): NG | Bactericidal activity, growth of S. aureus 1257 (S. aureus No. 1257; 1.5 % wt., exposure 60 min): NG | Bactericidal activity, growth of S. aureus 1257 (S. aureus No. 1257; 2.0 % wt., exposure 5 min): NG | Bactericidal activity, growth of S. aureus 1257 (S. aureus No. 1257; 2.0 % wt., exposure 15 min): NG | Bactericidal activity, growth of S. aureus 1257 (S. aureus No. 1257; 2.0 % wt., exposure 30 min): NG | Bactericidal activity, growth of S. aureus 1257 (S. aureus No. 1257; 2.0 % wt., exposure 60 min): NG | Bactericidal activity, growth of S. aureus 1257 (S. aureus No. 1257; 3.0 % wt., exposure 5 min): NG | Bactericidal activity, growth of S. aureus 1257 (S. aureus No. 1257; 3.0 % wt., exposure 15 min): NG | Bactericidal activity, growth of S. aureus 1257 (S. aureus No. 1257; 3.0 % wt., exposure 30 min): NG

C=CC(=O)[O][Zn][O]C(=O)C(O)(CC(=O)O)CC(=O)O [Zinc acrylate-citrate]
Tolerance time (fungal spores; Polyvinyl chloride emulsion): 17 days

C=CC(=O)[O-].CC(O)C(=O)[O-].[Zn+2] (centres unmarked) [Zinc acrylate-lactate]
Daphnia death rate in test sample, % of control sample (daphnias; 0.0001 % wt. in aqueous medium): 90 % of control sample | Number of survived daphnias (the average over parallel set of samples), Test sample (daphnias; 0.0001 % wt. in aqueous medium): 1 | Daphnia death rate in test sample, % of control sample (daphnias; 0.001 % wt. in aqueous medium): 100 % of control sample and 70 % of control sample | Daphnia death rate in test sample, % of control sample (daphnias; 0.01 % wt. in aqueous medium): 100 % of control sample | Number of survived daphnias (the average over parallel set of samples), Test sample (daphnias; 0.01 % wt. in aqueous medium): 0 | Daphnia death rate in test sample, % of control sample (daphnias; 0.1 % wt. in aqueous medium): 100 % of control sample | Number of survived daphnias (the average over parallel set of samples), Test sample (daphnias; 0.1 % wt. in aqueous medium): 0 | Daphnia death rate in test sample, % of control sample (daphnias; 1 % wt. in aqueous medium): 100 % of control sample | Number of survived daphnias (the average over parallel set of samples), Test sample (daphnias; 1 % wt. in aqueous medium): 0

C=CC(=O)[O][Zn][O]C(=O)CC(=O)O [Zinc acrylate-malonate]
Tolerance time (fungal spores; [4]): 20 days | Tolerance time (fungal spores; Polyvinyl chloride emulsion): 18 days | bactericidal effect against investigated strains [1]: stable bactericidal effect | Bactericidal activity, growth of E. coli 906 (E. coli No. 906; 1.5 % wt., exposure 5 min): >300 CFU | Bactericidal activity, growth of E. coli 906 (E. coli No. 906; 1.5 % wt., exposure 15 min): 78 CFU | Bactericidal activity, growth of E. coli 906 (E. coli No. 906; 1.5 % wt., exposure 30 min): 45 CFU and 53 CFU | Bactericidal activity, growth of E. coli 906 (E. coli No. 906; 1.5 % wt., exposure 60 min): 5 CFU and 4 CFU | Bactericidal activity, growth of E. coli 906 (E. coli No. 906; 2.0 % wt., exposure 5 min): 1 CFU | Bactericidal activity, growth of E. coli 906 (E. coli No. 906; 2.0 % wt., exposure 15 min): NG | Bactericidal activity, growth of E. coli 906 (E. coli No. 906; 2.0 % wt., exposure 30 min): NG | Bactericidal activity, growth of E. coli 906 (E. coli No. 906; 2.0 % wt., exposure 60 min): NG | Bactericidal activity, growth of S. aureus 1257 (S. aureus No. 1257; 1.5 % wt., exposure 5 min): >300 CFU | Bactericidal activity, growth of S. aureus 1257 (S. aureus No. 1257; 1.5 % wt., exposure 15 min): 85 CFU | Bactericidal activity, growth of S. aureus 1257 (S. aureus No. 1257; 1.5 % wt., exposure 30 min): 35 CFU and 43 CFU | Bactericidal activity, growth of S. aureus 1257 (S. aureus No. 1257; 2.0 % wt., exposure 5 min): NG | Bactericidal activity, growth of S. aureus 1257 (S. aureus No. 1257; 2.0 % wt., exposure 15 min): NG | Bactericidal activity, growth of S. aureus 1257 (S. aureus No. 1257; 2.0 % wt., exposure 30 min): NG | Bactericidal activity, growth of S. aureus 1257 (S. aureus No. 1257; 2.0 % wt., exposure 60 min): NG

C=C(C)C(=O)O.O=C([O-])CC(O)C(=O)[O-].[Zn+2] (centres unmarked) [Zinc methacrylate-malate]
Tolerance time (fungal spores; Polyvinyl chloride emulsion): 9 days

copper methacrylate-glycolate
Tolerance time (fungal spores; [4]): 8 days | Tolerance time (fungal spores; Paper impregnated with petrolatum base): 8 days | Tolerance time (fungal spores; Polyvinyl chloride emulsion): 10 days | Number of survived daphnias (the average over parallel set of samples), Test sample (daphnias; [3]): 1 | Number of survived daphnias (the average over parallel set of samples), Test sample (daphnias; 0.0001 % wt. in aqueous medium): 0 | Number of survived daphnias (the average over parallel set of samples), Test sample (daphnias; 0.001 % wt. in aqueous medium): 0 | Number of survived daphnias (the average over parallel set of samples), Test sample (daphnias; 0.01 % wt. in aqueous medium): 0 | Number of survived daphnias (the average over parallel set of samples), Test sample (daphnias; 0.1 % wt. in aqueous medium): 0 | Number of survived daphnias (the average over parallel set of samples), Test sample (daphnias; 1 % wt. in aqueous medium): 0 | bactericidal effect against investigated strains [1]: stable bactericidal effect | Bactericidal activity, growth of E. coli 906 (E. coli No. 906; 1.5 % wt., exposure 30 min): CG | Bactericidal activity, growth of E. coli 906 (E. coli No. 906; 1.5 % wt., exposure 60 min): >300 CFU | Bactericidal activity, growth of E. coli 906 (E. coli No. 906; 2.0 % wt., exposure 5 min): CG | Bactericidal activity, growth of E. coli 906 (E. coli No. 906; 2.0 % wt., exposure 15 min): >300 CFU | Bactericidal activity, growth of E. coli 906 (E. coli No. 906; 2.0 % wt., exposure 30 min): NG | Bactericidal activity, growth of E. coli 906 (E. coli No. 906; 2.0 % wt., exposure 60 min): NG | Bactericidal activity, growth of E. coli 906 (E. coli No. 906; 3.0 % wt., exposure 5 min): NG | Bactericidal activity, growth of E. coli 906 (E. coli No. 906; 3.0 % wt., exposure 15 min): NG | Bactericidal activity, growth of E. coli 906 (E. coli No. 906; 3.0 % wt., exposure 30 min): NG | Bactericidal activity, growth of P. aeruginosa ([2]; 1.5 % wt., exposure 30 min): CG | Bactericidal activity, growth of P. aeruginosa ([2]; 1.5 % wt., exposure 60 min): CG | Bactericidal activity, growth of P. aeruginosa ([2]; 2.0 % wt., exposure 5 min): CG | Bactericidal activity, growth of P. aeruginosa ([2]; 2.0 % wt., exposure 15 min): >300 CFU | Bactericidal activity, growth of P. aeruginosa ([2]; 2.0 % wt., exposure 60 min): NG | Bactericidal activity, growth of P. aeruginosa ([2]; 3.0 % wt., exposure 5 min): NG | Bactericidal activity, growth of P. aeruginosa ([2]; 3.0 % wt., exposure 15 min): NG | Bactericidal activity, growth of P. aeruginosa ([2]; 3.0 % wt., exposure 30 min): NG | Bactericidal activity, growth of S. aureus 1257 (S. aureus No. 1257; 1.5 % wt., exposure 30 min): CG | Bactericidal activity, growth of S. aureus 1257 (S. aureus No. 1257; 1.5 % wt., exposure 60 min): >300 CFU | Bactericidal activity, growth of S. aureus 1257 (S. aureus No. 1257; 2.0 % wt., exposure 5 min): CG | Bactericidal activity, growth of S. aureus 1257 (S. aureus No. 1257; 2.0 % wt., exposure 15 min): >300 CFU | Bactericidal activity, growth of S. aureus 1257 (S. aureus No. 1257; 2.0 % wt., exposure 30 min): NG | Bactericidal activity, growth of S. aureus 1257 (S. aureus No. 1257; 2.0 % wt., exposure 60 min): NG | Bactericidal activity, growth of S. aureus 1257 (S. aureus No. 1257; 3.0 % wt., exposure 5 min): NG | Bactericidal activity, growth of S. aureus 1257 (S. aureus No. 1257; 3.0 % wt., exposure 15 min): NG | Bactericidal activity, growth of S. aureus 1257 (S. aureus No. 1257; 3.0 % wt., exposure 30 min): NG
